# Values joined by “and” are separate entries in the source; they are usually repeats but may differ in a detail not shown here. Identical values can stand only once.
# Columns and labels:
# [1] = recrystallization to monohydrate of CV-8972, water content by KF; assay type: physicochemical; details: recrystallized monohydrate of CV-8972, MeOH:MEK with water; theoretical 3.32%
# Source text: The product was converted to the desired polymorph by recrystallization. The percentage of water and the ratio of methanol:methyl ethyl ketone (MEK) were varied in different batches using 2.5 g of product.
# In batch MBA 25, 5% water w/r/t total volume of solvent (23 volumes) containing 30% methano1:70% MEK was used for precipitation. The yield was 67% of monohydrate of CV-8972.
# In batch MBA 26, 1.33% water w/r/t total volume of solvent (30 volumes) containing 20% methano1:80% MEK was used for precipitation. […] Water content was determined by KF to be 4.0%.
# In batch MBA 27, 3% water w/r/t total volume of solvent (32 volumes) containing 22% methano1:78% MEK was used for precipitation. The yield was 87.22% of monohydrate of CV-8972.
# In other batches, the ratio and total volume of solvent were held constant at 20% methano1:80% MEK and 30 volumes in batches using 2.5 g of product, and only the percentage of water was varied.
# In batch MBA 29, 1.0 equivalent of water was added. Material was isolated and dried under vacuum at 40° C. for 24 hours. Water content was determined by KF to be 0.89%, showing that the monohydrate form was not forming stoichiometrically.
# In batch MBA 30, 3% water was added. Material was isolated and dried under vacuum at 40° C. for 24 hours.
# In batch MBA 31, 5% water was added. Material was isolated and dried under vacuum at 40° C. for 24 hours. Water content was determined by KF to be 3.30%, showing that monohydrate is forming with addition of excess water.
# [2] = tested on: isolated hearts after ischemia-reperfusion; assay: ischemia-reperfusion (IR), infarct size by TTC staining; assay type: in vivo, mice; details: composite image data, mean of the group's hearts
# Protocol: FIG. 38 is a schematic of the ischemia-reperfusion (IR) method used to analyze the effects of selected compositions on coronary flow, cardiac function, and infarct size. […] At 20 minutes, ischemia was induced, and coronary flow was analyzed. At 50 minutes, reperfusion was initiated to restore blood flow. At 170 minutes, coronary flow and cardiac function was analyzed, and then the hearts were preserved, sectioned, and infarct size was measured by triphenyltetrazolium chloride (TTC) staining. […] FIG. 42 is graph of infarct size after IR.
# [3] = tested on: isolated hearts after ischemia-reperfusion; assay: ischemia-reperfusion (IR), cardiac function (LVDP); assay type: in vivo, mice; details: group mean
# Protocol: At 20 minutes, ischemia was induced, and coronary flow was analyzed. At 50 minutes, reperfusion was initiated to restore blood flow. At 170 minutes, coronary flow and cardiac function was analyzed, and then the hearts were preserved, sectioned, and infarct size was measured by triphenyltetrazolium chloride (TTC) staining. […] Blue bars indicate LVDP at 20 minutes, and orange bars indicate LVDP at 170 minutes.
# [4] = tested on: isolated hearts after ischemia-reperfusion; assay: ischemia-reperfusion (IR), coronary flow; assay type: in vivo, mice; details: ratio of flow at 170 minutes to flow at 20 minutes
# Protocol: FIG. 38 is a schematic of the ischemia-reperfusion (IR) method used to analyze the effects of selected compositions on coronary flow, cardiac function, and infarct size. […] At 20 minutes, ischemia was induced, and coronary flow was analyzed. At 50 minutes, reperfusion was initiated to restore blood flow. At 170 minutes, coronary flow and cardiac function was analyzed, and then the hearts were preserved, sectioned, and infarct size was measured by triphenyltetrazolium chloride (TTC) staining. FIG. 39 is a graph of coronary flow of after IR.
# [5] = stability of CV-8972 in aqueous solution at different concentrations and pH; assay type: physicochemical
# Protocol: The stability of CV-8972 was analyzed. Aqueous samples containing CV-8972 at different concentrations and pH were incubated for various periods and analyzed.
# Form A of CV-8972 was analyzed for stability in aqueous solution. Aqueous samples containing CV-8972 at different concentrations and pH were incubated for various periods and analyzed.
structure (smiles),measurement,setting,value
COc1ccc(CN2CCN(CCOC(=O)c3cccnc3)CC2)c(OC)c1OC.Cl.Cl.Cl.O [Sample 289-MBA-25],KF result (% of water),[1],3.46%
COc1ccc(CN2CCN(CCOC(=O)c3cccnc3)CC2)c(OC)c1OC.Cl.Cl.Cl.O [Sample 289-MBA-29],KF result (Sample after drying at 40° C. for 24 hours),[1],0.89%
COc1ccc(CN2CCN(CCOC(=O)c3cccnc3)CC2)c(OC)c1OC.Cl.Cl.Cl.O [Sample 289-MBA-30],KF result (Sample after drying at 40° C. for 24 hours),[1],3.51%
COc1ccc(CN2CCN(CCOC(=O)c3cccnc3)CC2)c(OC)c1OC.Cl.Cl.Cl.O [Sample 289-MBA-26],KF result (% of water),[1],4.00%
same,KF result (Sample after drying at 40° C. for 24 hours),[1],3.75%
COc1ccc(CN2CCN(CCOC(=O)c3cccnc3)CC2)c(OC)c1OC.Cl.Cl.Cl.O [Sample 289-MBA-31],KF result (Sample after drying at 40° C. for 24 hours),[1],3.30%
COc1ccc(CN2CCN(CCOC(=O)c3cccnc3)CC2)c(OC)c1OC.Cl.Cl.Cl.O [Sample 289-MBA-27],KF result (% of water),[1],3.93%
same,KF result (Sample after drying at 40° C. for 24 hours),[1],3.54%
"COc1ccc(CN2CCNCC2)c(OC)c1OC [TMZ, trimetazidine]","IS/LV, Mean",[2],56%
same,"left ventricular developed pressure (LVDP), T20 Mean","[3]; Table 6, at 20 minutes",55.86
same,"left ventricular developed pressure (LVDP), T170 Mean","[3]; Table 6, at 170 minutes",48.91
same,CF170/CF20,[4]; group MEAN,4.02E+01 ul/ml
same,CF170/CF20,[4]; individual heart,2.42E+01 ul/ml and 5.87E+01 ul/ml and 3.57E+01 ul/ml and 3.37E+01 ul/ml and 5.21E+01 ul/ml and 2.73E+01 ul/ml and 2.60E+01 ul/ml and 6.39E+01 ul/ml
COc1ccc(CN2CCN(CCOC(=O)c3cccnc3)CC2)c(OC)c1OC.Cl.Cl.Cl.O [Sample 276-MBA-172],Retention Time 5.6 (purity of CV-8972),"[5]; 2 mg/mL pH 6, 0 hrs",98.01
same,Retention Time 5.6 (purity of CV-8972),"[5]; 2 mg/mL pH 7, 0 hrs",97.53
same,Retention Time 5.6 (purity of CV-8972),"[5]; 10 mg/mL pH 6, 0 hrs",95.24
same,Retention Time 5.6 (purity of CV-8972),"[5]; 10 mg/mL pH 7, 0 hrs",92.85

# From US20220226313A1, “COMBINATION THERAPIES THAT INCLUDE AN AGENT THAT PROMOTES GLUCOSE OXIDATION AND AN INHIBITOR OF PYRUVATE DEHYDROGENASE KINASE” (IMBRIA PHARMACEUTICALS, INC., priority 2019, published 2022)
